From patent US20160106102A1, “KNOWN AND NEW HETEROCYCLIC COMPOUNDS AS PEST CONTROL AGENTS” (BAYER CROPSCIENCE AKTIENGESELLSCHAFT, priority 2013, published 2016)
Where two headings read alike, the source gives them in different places.

How the values were obtained:
[1] = tested on: Myzus persicae; assay: Myzus persicae - spray test; assay type: in vivo; conditions: application rate of 500 g/ha, after 6 days, sprayed Chinese cabbage leaf discs infested by all stages, 100% = all aphids killed; for pest or weed control at 500 g/ha: Myzus persicae, foliar, 144 h, read-out: efficacy in %
Method in brief: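 Chinese cabbage leaf discs infested with all stages of green peach aphid sprayed with compound in acetone/DMF formulation with alkylaryl polyglycol ether emulsifier, diluted in emulsifier-containing water. Efficacy (% aphids killed) assessed after 6 days.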

[2] = log P determination by LC-MS in the acidic range; assay type: physicochemical; conditions: for log P (acid): LC-MS in the acidic range
Source text: The LC-MS determination in the acidic range is effected at pH 2.7 using 0.1% aqueous formic acid and acetonitrile (contains 0.1% formic acid) as eluents, linear gradient from 10% acetonitrile to 95% acetonitrile. Alternatively, the determination is effected in the acidic range at pH 2.3 using 0.1% aqueous phosphoric acid and acetonitrile as eluents; linear gradient from 10% acetonitrile to 95% acetonitrile.

[3] = tested on: Myzus persicae; assay: Myzus persicae - sachet test; assay type: in vivo; conditions: 100% = all animals killed; for pest or weed control at 6 ppm / pest or weed control at 30 ppm: Myzus persicae, read-out: efficacy (kill in %)
Method in brief: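 Active ingredient dissolved with 2% N-methylpyrrolidone and 2% diacetone alcohol, diluted in water, then pipetted into nutrient medium. Plate sealed and paired with a plate carrying green peach aphids. Kill in % scored after the set time (100% = all dead, 0% = none dead).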

[4] = application rate of 6 ppm in nutrient medium
[5] = application rate of 30 ppm in nutrient medium
[6] = pH 2.7, LC-MS in the acidic range, read-out: log P (acid)
[7] = pH 2.7, values given in the synthesis examples and NMR lists, read-out: HPLC-MS: log P

Compound | efficacy in % [1] [%] | log P (acid) [2] | efficacy (kill in %) [3, 4] [%] | efficacy (kill in %) [3, 5] [%] | pest or weed control at 500 g/ha [1] [%] | chromatographic logP [2, 6] | chromatographic logP [2, 7] | pest or weed control at 6 ppm [3, 4] [%] | pest or weed control at 30 ppm [3, 5] [%]
CC(C)=CCn1nc(NC(=O)c2cccnc2)cc1C [Compound I-1-239] | 90 | 1.75 | 100 | 100 |  |  |  |  | 
CCSCn1nc(NC(=O)c2cccnc2)cc1C [Compound I-1-242, N-{1-[(Ethylsulphanyl)methyl]-5-methyl-1H-pyrazol-3-yl}nicotinamide] |  |  |  |  | 100 | 1.49 | 1.49 | 100 | 100
Cc1cc(NC(=O)c2cccnc2)nn1C[S+](C)[O-] (centres unmarked) [Compound I-1-243] | 100 | 0.19 | 100 | 100 |  |  |  |  | 
Cc1cc(NC(=O)c2cccnc2)nn1CS(C)(=O)=O [Compound I-1-244] | 90 | 0.59 | 100 | 100 |  |  |  |  | 
CC[S+]([O-])Cn1nc(NC(=O)c2cccnc2)cc1C (centres unmarked) [Compound I-1-245] | 100 | 0.45 | 100 | 100 |  |  |  |  | 
CCS(=O)(=O)Cn1nc(NC(=O)c2cccnc2)cc1C [Compound I-1-246, N-{1-[(Ethylsulphonyl)methyl]-5-methyl-1H-pyrazol-3-yl}nicotinamide] |  |  |  |  | 100 | 0.83 | 0.83 | 100 | 100
Cc1cc(NC(=O)c2cccnc2)nn1C(=O)OCC(F)(F)F [Compound I-1-259] | 90 | 1.79 | 100 | 100 |  |  |  |  | 
Cc1cc(NC(=O)c2cccnc2)nn1CC(=O)C1(Cl)CC1 [Compound I-1-260] | 90 | 1.38 | 100 | 100 |  |  |  |  | 
COCC(=O)n1nc(NC(=O)c2cccnc2)cc1C [Compound I-1-261] | 100 | 1.17 | 100 | 100 |  |  |  |  | 
Cc1cc(N(CC#N)C(=O)c2cccnc2)nn1Cc1ncccn1 [Compound I-1-262] | 90 | 0.84 | 100 | 100 |  |  |  |  | 
C#CCN(C(=O)c1cccnc1)c1cc(C)n(Cc2ncccn2)n1 [Compound I-1-264] | 90 | 0.98 | 100 | 100 |  |  |  |  | 
CSCCC(=O)n1nc(NC(=O)c2cccnc2)cc1C [Compound I-1-266] | 90 | 1.87 | 100 | 100 |  |  |  |  | 
Cc1cc(NC(=O)c2cccnc2)nn1C(=O)CCS(C)(=O)=O [Compound I-1-268] | 100 | 1.04 | 100 | 100 |  |  |  |  | 
Cc1cc(NC(=O)c2cccnc2)nn1S(C)(=O)=O [Compound I-1-277] | 100 | 1.03 | 100 | 100 |  |  |  |  | 
Cc1cc(NC(=O)c2cccnc2)nn1S(=O)(=O)c1ccccn1 [Compound I-1-279] | 90 | 1.51 | 100 | 100 |  |  |  |  | 
Cc1cc(NC(=O)c2cccnc2)nn1Cc1nnc(C(C)(C)C)o1 [Compound I-1-281] | 90 | 1.44 | 80 | 100 |  |  |  |  | 
Cc1cc(Cn2nc(NC(=O)c3cccnc3)cc2C)no1 [Compound I-1-283] | 100 | 1.19 | 100 | 100 |  |  |  |  | 
Cc1cc(NC(=O)c2cccnc2)nn1Cc1noc(C(C)(C)C)n1 [Compound I-1-285] | 90 | 1.71 | 100 | 100 |  |  |  |  | 
Cc1cc(NC(=O)c2cccnc2)nn1Cc1noc(C(=O)N(C)C)n1 [Compound I-1-286] | 100 | 1.03 | 100 | 100 |  |  |  |  | 
Cc1cc(NC(=O)c2cccnc2)nn1C(=O)NC(C)C [Compound I-1-287] | 90 | 1.46 | 100 | 100 |  |  |  |  | 
CCS(=O)(=O)N(C)C(=O)n1nc(NC(=O)c2cccnc2)cc1C [Compound I-1-289] | 90 | 1.5 | 100 | 100 |  |  |  |  | 

Compound | efficacy in % [1] [%] | log P (acid) [2] | efficacy (kill in %) [3, 4] [%] | efficacy (kill in %) [3, 5] [%] | pest or weed control at 500 g/ha [1] [%] | chromatographic logP [2, 6] | chromatographic logP [2, 7] | pest or weed control at 6 ppm [3, 4] [%] | pest or weed control at 30 ppm [3, 5] [%]
Cc1cc(NC(=O)c2cccnc2)nn1C(=O)N(C)C [Compound I-1-291] | 90 | 0.86 | 100 | 100 |  |  |  |  | 
CNC(=O)n1nc(NC(=O)c2cccnc2)cc1C [Compound I-1-292] | 100 | 0.97 | 100 | 100 |  |  |  |  | 
Cc1cc(NC(=O)c2cccnc2)nn1Cc1nccn1C [Compound I-1-293] | 90 | −0.21 | 100 | 100 |  |  |  |  | 
Cc1cc(NC(=O)c2cccnc2)nn1Cc1cscn1 [Compound I-1-295] | 100 | 0.95 | 100 | 100 |  |  |  |  | 
Cc1nnc(Cn2nc(NC(=O)c3cccnc3)cc2C)s1 [Compound I-1-296] | 90 | 0.83 | 100 | 100 |  |  |  |  | 
Cc1cc(NC(=O)c2cccnc2)nn1Cc1ccc(Cl)s1 [Compound I-1-297] | 90 | 2.07 |  | 100 |  |  |  |  | 
Cc1cc(NC(=O)c2cccnc2)nn1Cc1cc(C(=O)N(C)C)no1 [Compound I-1-298] | 90 | 1.09 | 100 | 100 |  |  |  |  | 
Cc1cc(NC(=O)c2cccnc2)nn1Cc1ncnn1-c1ccccc1 [Compound I-1-304] | 100 | 1.32 | 100 | 100 |  |  |  |  | 
Cc1cc(NC(=O)c2cccnc2)nn1C(=O)NCC[S+](C)[O-] (centres unmarked) [Compound I-1-308] | 90 | 0.84 | 100 | 100 |  |  |  |  | 
Cc1cc(NC(=O)c2cccnc2)nn1C(=O)NCC1COCCO1 (centres unmarked) [Compound I-1-310] | 100 | 1.2 | 100 | 100 |  |  |  |  | 
Cc1cc(NC(=O)c2cccnc2)nn1C(=O)NCC1CCCO1 (centres unmarked) [Compound I-1-311] | 90 | 1.45 |  | 100 |  |  |  |  | 
Cc1cc(NC(=O)c2cccnc2)nn1C(=O)NC1CC1 [Compound I-1-312] | 90 | 1.27 | 100 | 100 |  |  |  |  | 
Cc1cc(NC(=O)c2cccnc2)nn1C(=O)NCC1CCCCO1 (centres unmarked) [Compound I-1-313] | 90 | 1.78 | 100 | 100 |  |  |  |  | 
CCCNC(=O)n1nc(NC(=O)c2cccnc2)cc1C [Compound I-1-314] | 90 | 1.56 | 100 | 100 |  |  |  |  | 
CCC(C)NC(=O)n1nc(NC(=O)c2cccnc2)cc1C (centres unmarked) [Compound I-1-317] | 90 | 1.83 | 100 | 100 |  |  |  |  | 
CCCC(C)NC(=O)n1nc(NC(=O)c2cccnc2)cc1C (centres unmarked) [Compound I-1-318] | 90 | 2.18 | 100 | 100 |  |  |  |  | 
Cc1cc(NC(=O)c2cccnc2)nn1C(=O)NCC(C)C [Compound I-1-320] | 90 | 1.89 | 100 | 100 |  |  |  |  | 
Cc1cc(NC(=O)c2cccnc2)nn1C(=O)NCC(C)(C)C [Compound I-1-321] | 100 | 2.19 | 100 | 100 |  |  |  |  | 
Cc1cc(NC(=O)c2cccnc2)nn1C(=O)NCc1ccccn1 [Compound I-1-329] | 90 | 0.88 | 100 | 100 |  |  |  |  | 
Cc1cc(NC(=O)c2cccnc2)nn1C(=O)NCc1cccnc1 [Compound I-1-330] | 90 | 0.64 | 100 | 100 |  |  |  |  | 
